Measurements: publication PMC8245078, “Development of novel benzofuran-isatin conjugates as potential antiproliferative agents with apoptosis inducing mechanism in Colon cancer” (Journal of Enzyme Inhibition and Medicinal Chemistry, 2021)

What was measured:
[1] = test system: SW-620 cells; experiment: Annexin V-FITC/propidium iodide apoptosis assay; type: cell-based, human; conditions: for total increase in apoptosis vs control untreated cells: 24 h; for induction of apoptosis (in words): SW-620, 5 and 10 µM; for total increase in apoptosis vs control untreated cells, range: SW-620, over the concentrations 5 and 10 µM
Method: Further investigation for compounds 5a and 5d concerning their potential role of apoptosis induction, using Annexin V-FITC/PI double staining assay, was performed to evaluate their impact on both early and late apoptosis percentages in SW-620 cancer cell lines (Figure 6). […] As shown, compound 5a induced approximately 1.7-folds and 3.8-folds total increase in apoptosis at concentration of 5 µM and 10 µM, respectively, in comparison to the control untreated SW-620 cell line (Figure 6(A)).
Figure 6. (A) AnnexinV/PI apoptosis assay for compound 5a. Tow concentrations (5 and 10 µM) of compound 5a, in addition untreated plate as a control were used to test the apoptotic effect by using Annexin V/PI in SW-620 cell line. Cells were treated with the compound 5a for 24 h. (B) AnnexinV/PI apoptosis assay for compound 5d. Tow concentrations (5 and 10 µM) of compound 5d, in addition untreated plate as a control were used to test the apoptotic effect by using Annexin V/PI in SW-620 cell line. Cells were treated with the compound 5d for 24 h. […] Their printed values are 1.93%, 2.06%, 1.81% in panel A and 0.73%, 2.01%, 1.62% in panel B. […]
2.4. Measurement of Apoptosis by Annexin V-FITC/PI Assay
Induction of apoptosis was measured by Dead Cell Apoptosis Kit with Annexin V FITC and PI, for flow cytometry (Thermofischer scientific, OR, USA) according to the manufacturer’s instruction. SW620 cells were seeded in a 6-well plate (3 × 10^5 cells per well) and treated with the various compound for 24h. Both floating and adherent cells were harvested, pooled together, and incubated with Annexin V-FITC and PI for 15 min on ice in dark. The cells were analyzed by BD FACSCalibur™ cell analyzer (BD Biosciences, CA, USA) at an emission of 530 nm (FL1 channel) and >575 nm (FL3). […]

[2] = test system: anti-apoptotic Bcl2 protein in SW-620 cells; experiment: Western blot analysis of Bcl2; type: cell-based, human; conditions: SW-620, 5 μM and 10 μM, 24 h
Description: To further examine the possible mechanism of apoptosis, the effect of compounds 5a and 5d on certain apoptosis-related proteins was studied. Bcl2 protein as a critical component of the mitochondrial apoptotic pathway is reported to be overexpressed in numerous tumours causing survival of cancer cell[62]. In addition, it was reported that caspase activation during apoptosis leads to proteolytic cleavage of several cellular substrates participating in DNA reparation including [poly (ADP-ribose) polymerase][63]. Therefore, the impact of compounds 5a and 5d on the anti-apoptotic protein Bcl2 and the level of cleaved PARP was examined (Figure 7). […]
2.5. Western Blot Analysis
All cells were seeded in a 100 mm dish (1 × 10^6 cells per dish) in 5% CO2 at 37 °C in the appropriate culture medium. The cells with around 50% confluency were treated with compounds for 24h. At the experiment day, cells were washed with 1x PBS, harvested and lysed in RIPA lysis buffer, combined with protease inhibitors, (Sigma-Aldrich, St. Louis, MO, USA) as described previously (39)). The total protein concentration was evaluated by the colorimetric Bradford protein assay (BIO-RAD inc, CA, USA) at 595 nm absorbance. Lysates were loaded in […]
equal concentration and separated by sodium dodecyl sulfate-polyacrylamide gel electrophoresis (SDS-PAGE) and then transferred to a nitrocellulose membrane by semi-dry. […]

Row | Structure (SMILES) | total increase in apoptosis vs control untreated cells ([1]; SW-620, 5 µM) | total increase in apoptosis vs control untreated cells ([1]; SW-620, 10 µM) | induction of apoptosis (in words) [1] | total increase in apoptosis vs control untreated cells, range [1] | Bcl2 protein expression (Western blot, in words) [2]
1 | COc1ccc2c(c1)/C(=N/NC(=O)c1oc3ccccc3c1C)C(=O)N2 [Compound 5d] | ~2.9 folds | ~3.8 folds | dose dependent induction of apoptosis | 2.9–3.8 folds | significant inhibition
2 | Cc1c(C(=O)N/N=C2\C(=O)Nc3ccccc32)oc2ccccc12 [Compound 5a] | approximately 1.7 folds | ~3.8 folds | dose dependent induction of apoptosis | 1.7–3.8 folds | dose dependent inhibition
